From PubChem BioAssay AID342 (DTP/NCI, 2004)
“And” between values parts separate entries of the source, which are not always exact repeats. Equal entries are not always repeated.

Tested on: Swiss mice, Sarcoma 180 sc, mean tumor weight T/C
Test: NCI In Vivo Anticancer Drug Screen. Data for tumor model Sarcoma 180 (subcutaneous) in Swiss mice
Conditions: endpoint: mean tumor weight, higher = larger tumour
Summary of the method: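 Tumor-bearing mice, transplantable tumor; readout survival or tumor size; result = T/C, treated vs vehicle control.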

**Q.** With `CC(C)=CCC1=C(O)c2ccccc2C(=O)C1=O` as the molecule, how does the T/C (dose: 30.0 mg/kg/injection, schedule: Q01DX007 (ip), vehicle: water) read?
**A.** 96 % of control

**Q.** And the T/C (dose: 50.0 mg/kg/injection, schedule: Q01DX007 (ip), vehicle: water)?
**A.** 97 % of control

**Q.** And the T/C (dose: 67.0 mg/kg/injection, schedule: Q01DX007 (ip), vehicle: other)?
**A.** 68 % of control

**Q.** And the T/C (dose: 100.0 mg/kg/injection, schedule: Q01DX007 (ip), vehicle: other)?
**A.** 90 % of control

**Q.** And the T/C (dose: 100.0 mg/kg/injection, schedule: Q01DX007 (ip), vehicle: water)?
**A.** 91 % of control and 107 % of control

**Q.** And the T/C (dose: 100.0 mg/kg/injection, schedule: Q#A X014 (oral), vehicle: other)?
**A.** 70 % of control

**Q.** What about the T/C (dose: 150.0 mg/kg/injection, schedule: Q01DX007 (ip), vehicle: other) of the same molecule?
**A.** 73 % of control

**Q.** And the T/C (dose: 150.0 mg/kg/injection, schedule: Q#A X014 (oral), vehicle: other)?
**A.** 46 % of control

**Q.** And the T/C (dose: 200.0 mg/kg/injection, schedule: Q#A X014 (oral), vehicle: other)?
**A.** 42 % of control

**Q.** How did the T/C (dose: 9.37 mg/kg/injection, schedule: Q#A X014 (ip), vehicle: carboxymethylcellulose (CMC)) turn out when `CCSCCC(N)C(=O)O` (stereo not given) was run?
**A.** 80 % of control

**Q.** What about the T/C (dose: 18.2 mg/kg/injection, schedule: Q01DX007 (ip), vehicle: carboxymethylcellulose (CMC)) of the same molecule?
**A.** 115 % of control

**Q.** What about the T/C (dose: 18.75 mg/kg/injection, schedule: Q#A X014 (ip), vehicle: carboxymethylcellulose (CMC)) of the same molecule?
**A.** 116 % of control

**Q.** And the T/C (dose: 25.0 mg/kg/injection, schedule: Q01DX007 (ip), vehicle: carboxymethylcellulose (CMC))?
**A.** 102 % of control

**Q.** And the T/C (dose: 36.3 mg/kg/injection, schedule: Q01DX007 (ip), vehicle: carboxymethylcellulose (CMC))?
**A.** 98 % of control

**Q.** What about the T/C (dose: 37.5 mg/kg/injection, schedule: Q#A X014 (ip), vehicle: carboxymethylcellulose (CMC)) of the same molecule?
**A.** 40 % of control

**Q.** And the T/C (dose: 50.0 mg/kg/injection, schedule: Q01DX007 (ip), vehicle: carboxymethylcellulose (CMC))?
**A.** 80 % of control

**Q.** And the T/C (dose: 72.5 mg/kg/injection, schedule: Q01DX007 (ip), vehicle: carboxymethylcellulose (CMC))?
**A.** 77 % of control

**Q.** And the T/C (dose: 75.0 mg/kg/injection, schedule: Q#A X014 (ip), vehicle: carboxymethylcellulose (CMC))?
**A.** 36 % of control

**Q.** What about the T/C (dose: 90.0 mg/kg/injection, schedule: Q01DX007 (ip), vehicle: carboxymethylcellulose (CMC)) of the same molecule?
**A.** 106 % of control

**Q.** And the T/C (dose: 100.0 mg/kg/injection, schedule: Q01DX007 (ip), vehicle: carboxymethylcellulose (CMC))?
**A.** 111 % of control

**Q.** What about the T/C (dose: 108.0 mg/kg/injection, schedule: Q01DX007 (ip), vehicle: carboxymethylcellulose (CMC)) of the same molecule?
**A.** 98 % of control

**Q.** What about the T/C (dose: 145.0 mg/kg/injection, schedule: Q01DX007 (ip), vehicle: carboxymethylcellulose (CMC)) of the same molecule?
**A.** 108 % of control

**Q.** And the T/C (dose: 216.0 mg/kg/injection, schedule: Q01DX007 (ip), vehicle: carboxymethylcellulose (CMC))?
**A.** 107 % of control

**Q.** What about the T/C (dose: 432.0 mg/kg/injection, schedule: Q01DX007 (ip), vehicle: carboxymethylcellulose (CMC)) of the same molecule?
**A.** 47 % of control

**Q.** `Cc1cc2nc3c(=O)[nH]c(=O)nc-3n(CCO)c2cc1C` was tested. Which T/C (dose: 60.0 mg/kg/injection, schedule: Q#A X014 (ip), vehicle: carboxymethylcellulose (CMC)) did it give?
**A.** 78 % of control

**Q.** What about the T/C (dose: 120.0 mg/kg/injection, schedule: Q#A X014 (ip), vehicle: carboxymethylcellulose (CMC)) of the same molecule?
**A.** 77 % of control

**Q.** What about the T/C (dose: 240.0 mg/kg/injection, schedule: Q#A X014 (ip), vehicle: carboxymethylcellulose (CMC)) of the same molecule?
**A.** 76 % of control

**Q.** What about the T/C (dose: 384.0 mg/kg/injection, schedule: Q01DX007 (ip), vehicle: carboxymethylcellulose (CMC)) of the same molecule?
**A.** 61 % of control

**Q.** What about the T/C (dose: 480.0 mg/kg/injection, schedule: Q01DX007 (ip), vehicle: carboxymethylcellulose (CMC)) of the same molecule?
**A.** 62 % of control

**Q.** What about the T/C (dose: 480.0 mg/kg/injection, schedule: Q#A X014 (ip), vehicle: carboxymethylcellulose (CMC)) of the same molecule?
**A.** 40 % of control

**Q.** And the T/C (dose: 640.0 mg/kg/injection, schedule: Q01DX007 (ip), vehicle: carboxymethylcellulose (CMC))?
**A.** 82 % of control

**Q.** And the T/C (dose: 960.0 mg/kg/injection, schedule: Q01DX007 (ip), vehicle: carboxymethylcellulose (CMC))?
**A.** 66 % of control

**Q.** What does the source list for `CO[C@H]1CC[C@@]2(C)C(=CC[C@H]3[C@@H]4C[C@H](O)[C@H](OC)[C@@]4(C)CC[C@@H]32)C1`?
**A.** T/C (dose: 0.25 mg/kg/injection, schedule: Q#A X014 (sc), vehicle: steriod suspending solution): 94 % of control; T/C (dose: 2.5 mg/kg/injection, schedule: Q#A X014 (sc), vehicle: steriod suspending solution): 85 % of control; T/C (dose: 10.0 mg/kg/injection, schedule: Q#A X014 (sc), vehicle: steriod suspending solution): 122 % of control; T/C (dose: 50.0 mg/kg/injection, schedule: Q#A X014 (sc), vehicle: steriod suspending solution): 97 % of control

**Q.** Which T/C (dose: 1.25 mg/kg/injection, schedule: Q#A X014 (ip), vehicle: olive oil, sesame oil, peanut oil) does the source give for `C[C@@H]1C[C@H]2CC[C@H](O2)[C@H](C)C(=O)O[C@@H](C)C[C@@H]2CC[C@@H](O2)[C@@H](C)C(=O)O[C@H](C)C[C@H]2CC[C@H](O2)[C@H](C)C(=O)O[C@@H](C)C[C@@H]2CC[C@@H](O2)[C@@H](C)C(=O)O1` here?
**A.** 96 % of control

**Q.** And the T/C (dose: 2.5 mg/kg/injection, schedule: Q#A X014 (ip), vehicle: olive oil, sesame oil, peanut oil)?
**A.** 88 % of control

**Q.** What about the T/C (dose: 5.0 mg/kg/injection, schedule: Q#A X014 (ip), vehicle: olive oil, sesame oil, peanut oil) of the same molecule?
**A.** 90 % of control

**Q.** And the T/C (dose: 5.0 mg/kg/injection, schedule: Q#A X014 (sc), vehicle: olive oil, sesame oil, peanut oil)?
**A.** 82 % of control

**Q.** What about the T/C (dose: 9.0 mg/kg/injection, schedule: Q#A X014 (ip), vehicle: carboxymethylcellulose (CMC)) of the same molecule?
**A.** 89 % of control

**Q.** And the T/C (dose: 10.0 mg/kg/injection, schedule: Q#A X014 (ip), vehicle: olive oil, sesame oil, peanut oil)?
**A.** 73 % of control and 83 % of control

**Q.** And the T/C (dose: 10.0 mg/kg/injection, schedule: Q#A X014 (sc), vehicle: olive oil, sesame oil, peanut oil)?
**A.** 81 % of control

**Q.** And the T/C (dose: 15.0 mg/kg/injection, schedule: Q#A X014 (sc), vehicle: olive oil, sesame oil, peanut oil)?
**A.** 80 % of control

**Q.** What about the T/C (dose: 18.0 mg/kg/injection, schedule: Q#A X014 (ip), vehicle: carboxymethylcellulose (CMC)) of the same molecule?
**A.** 111 % of control

**Q.** What about the T/C (dose: 20.0 mg/kg/injection, schedule: Q#A X014 (ip), vehicle: carboxymethylcellulose (CMC)) of the same molecule?
**A.** 57 % of control

**Q.** And the T/C (dose: 25.0 mg/kg/injection, schedule: Q#A X014 (ip), vehicle: carboxymethylcellulose (CMC))?
**A.** 53 % of control

**Q.** And the T/C (dose: 25.0 mg/kg/injection, schedule: Q#A X014 (oral), vehicle: methylcellulose (MC))?
**A.** 77 % of control

**Q.** What about the T/C (dose: 30.0 mg/kg/injection, schedule: Q#A X014 (ip), vehicle: carboxymethylcellulose (CMC)) of the same molecule?
**A.** 89 % of control

**Q.** And the T/C (dose: 30.0 mg/kg/injection, schedule: Q#A X014 (sc), vehicle: olive oil, sesame oil, peanut oil)?
**A.** 50 % of control

**Q.** And the T/C (dose: 35.0 mg/kg/injection, schedule: Q#A X014 (ip), vehicle: carboxymethylcellulose (CMC))?
**A.** 60 % of control

**Q.** What about the T/C (dose: 35.0 mg/kg/injection, schedule: Q#A X014 (sc), vehicle: olive oil, sesame oil, peanut oil) of the same molecule?
**A.** 26 % of control

**Q.** What about the T/C (dose: 40.0 mg/kg/injection, schedule: Q#A X014 (ip), vehicle: carboxymethylcellulose (CMC)) of the same molecule?
**A.** 64 % of control

**Q.** What about the T/C (dose: 40.0 mg/kg/injection, schedule: Q#A X014 (sc), vehicle: olive oil, sesame oil, peanut oil) of the same molecule?
**A.** 32 % of control

**Q.** And the T/C (dose: 50.0 mg/kg/injection, schedule: Q#A X014 (oral), vehicle: methylcellulose (MC))?
**A.** 114 % of control

**Q.** What about the T/C (dose: 50.0 mg/kg/injection, schedule: Q#A X014 (sc), vehicle: olive oil, sesame oil, peanut oil) of the same molecule?
**A.** 26 % of control

**Q.** And the T/C (dose: 54.0 mg/kg/injection, schedule: Q01DX007 (sc), vehicle: methylcellulose (MC))?
**A.** 106 % of control

**Q.** And the T/C (dose: 80.0 mg/kg/injection, schedule: Q01DX007 (sc), vehicle: methylcellulose (MC))?
**A.** 77 % of control

**Q.** And the T/C (dose: 100.0 mg/kg/injection, schedule: Q#A X014 (oral), vehicle: methylcellulose (MC))?
**A.** 93 % of control

**Q.** And the T/C (dose: 108.0 mg/kg/injection, schedule: Q03DX003 (sc), vehicle: methylcellulose (MC))?
**A.** 71 % of control

**Q.** What about the T/C (dose: 120.0 mg/kg/injection, schedule: Q01DX007 (sc), vehicle: methylcellulose (MC)) of the same molecule?
**A.** 101 % of control

**Q.** What about the T/C (dose: 162.0 mg/kg/injection, schedule: Q03DX003 (sc), vehicle: methylcellulose (MC)) of the same molecule?
**A.** 115 % of control

**Q.** And the T/C (dose: 180.0 mg/kg/injection, schedule: Q01DX007 (sc), vehicle: methylcellulose (MC))?
**A.** 100 % of control

**Q.** What about the T/C (dose: 200.0 mg/kg/injection, schedule: Q#A X014 (oral), vehicle: methylcellulose (MC)) of the same molecule?
**A.** 95 % of control

**Q.** What about the T/C (dose: 240.0 mg/kg/injection, schedule: Q03DX003 (sc), vehicle: methylcellulose (MC)) of the same molecule?
**A.** 109 % of control

**Q.** And the T/C (dose: 360.0 mg/kg/injection, schedule: Q03DX003 (sc), vehicle: methylcellulose (MC))?
**A.** 102 % of control

**Q.** And the T/C (dose: 540.0 mg/kg/injection, schedule: Q03DX003 (sc), vehicle: methylcellulose (MC))?
**A.** 152 % of control

**Q.** With `CN(N=Nc1n[nH]nc1C(N)=O)c1ccccc1` as the molecule, how does the T/C (dose: 31.0 mg/kg/injection, schedule: Q01DX007 (ip), vehicle: carboxymethylcellulose (CMC)) read?
**A.** 65 % of control

**Q.** And the T/C (dose: 62.0 mg/kg/injection, schedule: Q01DX007 (ip), vehicle: carboxymethylcellulose (CMC))?
**A.** 73 % of control

**Q.** And the T/C (dose: 125.0 mg/kg/injection, schedule: Q01DX007 (ip), vehicle: carboxymethylcellulose (CMC))?
**A.** 70 % of control

**Q.** Which T/C (dose: 4.0 mg/kg/injection, schedule: Q01DX007 (ip), vehicle: saline) does the source give for `CC(C)CC(C)(C[N+](=O)[O-])C[N+](=O)[O-]` here?
**A.** 93 % of control

**Q.** With `CC(C)=CCC/C(C)=C/CO` as the molecule, how does the T/C (dose: 7.8 mg/kg/injection, schedule: Q01DX007 (ip), vehicle: saline) read?
**A.** 83 % of control

**Q.** What about the T/C (dose: 15.6 mg/kg/injection, schedule: Q01DX007 (ip), vehicle: saline) of the same molecule?
**A.** 83 % of control

**Q.** And the T/C (dose: 31.3 mg/kg/injection, schedule: Q01DX007 (ip), vehicle: saline)?
**A.** 110 % of control

**Q.** And the T/C (dose: 62.5 mg/kg/injection, schedule: Q01DX007 (ip), vehicle: saline)?
**A.** 90 % of control
